Source: patent US20140024683A1, “CHLORIDE CHANNEL AND CHLORIDE TRANSPORTER MODULATORS FOR THERAPY IN SMOOTH MUSCLE DISEASES” (priority 2011, published 2014)

What was measured:
[1] = tested on: guinea pig tracheal rings; test: Ex vivo airway smooth muscle force, prevention or relaxation of a contraction (Example 5); conditions: solo therapy; vs vehicle
Procedure: The chloride channel blocker NPPB and the chloride transporter blocker bumetanide were evaluated for their ability to prevent an initial contraction (n=5) (FIG. 23A) or to relax an existing contraction (n=6) (FIG. 23B).
As a proof of concept for chloride channel blockade in general, another chloride channel blocker, 5-nitro-2-(3-phenylpropylamino)-benzoic acid (NPPB) was used in an ex vivo guinea pig airway smooth muscle model.

[2] = tested on: human airway smooth muscle strips; test: Organ bath force, acetylcholine-induced contractions of human airway smooth muscle strips after pretreatment; conditions: 100 μM, separate blockade (alone)
Procedure: Human muscle tissue was acquired from excess lung airways trimmed during surgery from healthy lung transplant donors. Acquired tissue was stored overnight at 20° C. Airway smooth muscle contractions measured ex vivo in organ baths were performed as previously described (Gallos et al., 2008; Gallos et al., 2009, Gallos et al., 2011; Gleason et al., 2010; Yim et al., 2011; Mitzuta et al., 2008). Closed guinea pig tracheal rings or strips of human airway smooth muscle (tracheal or main stem bronchus) were suspended in organ baths, which had 95% oxygen constantly perfusing through Dulbecco's Modified Eagle Medium. Rings were cut on the cartilaginous borders of the smooth muscle. The epithelial layer was dissected under microscopic assistance. […]
Following equilibration, in guinea pig experiments, the capsaicin analog N-vanillylnonanamide (10 μM final) was added to the organ baths to first activate and then deplete nonadrenergic, noncholinergic nerves. […] To avoid bias between treatment groups, tissues were contracted to individually calculated EC50 values for acetylcholine and tissues with similar Emax values were randomly assigned to treatments within individual experiments. […]

[3] = tested on: human airway smooth muscle cells; test: FLIPR membrane potentiometric dye assay (Example 21); assay type: cell-based
Procedure: Immortalized airway smooth muscle cell lines modified to stably express human telomerase reverse transcriptase were a kind gift from Dr. William Gerthoffer (University of Southern Alabama, Mobile, Ala.) prepared as described previously (Gosens et al., 2006) and grown in Dulbecco's Modified Eagle's Medium/F12 media (GIBCO, Grand Island, N.Y.), with 10% FBS and antibiotics.
Immortalized human airway smooth muscle cells were cultured on black-walled 96 well plates to 100% confluence, and were washed four times with warmed (37° C.) assay buffer of the following composition (in mM): NaCl 140, KCl 4.7, CaCl2 2.5, MgCl2 1.2, HEPES 11, D-glucose 10. A stock solution (100% dye) of FLIPR blue dye was prepared by reconstitution of 1 vial (125 mg) with 100 ml assay buffer. A 50% working stock was prepared by further diluting the reconstituted blue dye 1:1 with assay buffer and was used to load cells (90 μl/well) over 45 min at 37° C. in a humidified cell culture incubator (95% air/5% CO2). All reagents were dissolved in assay buffer. Fluorescence was measured with a Flex Station 3 (Molecular Devices) using an excitation wavelength of 530 nm, emission wavelength of 565 nm and a cutoff filter of 550 nm. Baseline fluorescence was measured every 2 seconds for 1 minute then for 2 minutes after injection of vehicle or compound of interest as indicated (using the Flexstation's 3 integrated injection capabilities).
Human airway smooth muscle cells were incubated with FLIPR membrane potentiometric dye to assess if the chloride channel blockers changed membrane potential at the cellular level. FLIPR fluorescence will increase with depolarization, and decrease with hyperpolarization. […] Therefore, chloride channel blockade, but not NKCC blockade, hyperpolarized human airway smooth muscle cells.

[4] = tested on: human airway smooth muscle cells; test: MQAE fluorescence assay of intracellular chloride; assay type: cell-based
Procedure: To determine whether blockade of CaCCs or NKCCs induce changes in intracellular chloride concentrations in human airway smooth muscle cells, the MQAE in vitro fluorescent dye assay (Invitrogen) was used. Briefly, human airway smooth muscle cells were grown to 100% confluence in 96-well black-walled plates. Cells were loaded overnight with 10 mM MQAE in serum-free basal cell culture medium (M199, Invitrogen) and were washed once with warmed (37° C.) normal-chloride buffer [consisting of (in mM) 130 sodium chloride, 2 CaCl2, 1 MgCl2, 10 D-glucose, and 10 HEPES, pH 7.4]. […] An increase in fluorescence represents decreased intracellular chloride (removal of halide quenching of MQAE) while decreased fluorescence represents increased intracellular chloride (enhanced halide quenching of MQAE).

| Compound | relaxation of an existing contraction [1] | effect on acetylcholine-induced contraction [2] | change in membrane potential (FLIPR) ([3]; 10 μM bumetanide) | intracellular chloride (MQAE fluorescence) ([4]; 10 μM bumetanide) | intracellular chloride (MQAE fluorescence) ([4]; 10 μM bumetanide, listed as Bumetanide) | membrane potential, continuous fluorescence recording (representative tracing) [3] | change in relative fluorescent units (membrane potential, FLIPR) ([3]; 100 μM, n=12) | intracellular chloride (MQAE fluorescence) ([4]; 100 μM niflumic acid) |
| --- | --- | --- | --- | --- | --- | --- | --- | --- |
| CCCCNc1cc(C(=O)O)cc(S(N)(=O)=O)c1Oc1ccccc1 [bumetanide] | effective in relaxing an existing contraction | does not significantly reduce contraction | did not cause a significant change | impairs chloride entry | decreases [Cl^−]i |  |  |  |
| O=C(O)c1cccnc1Nc1cccc(C(F)(F)F)c1 [niflumic acid] |  | does not significantly reduce contraction |  |  |  | hyperpolarize | −254.7+/−37 RFU | increases intracellular chloride |
